Key:
[1] = FP802 concentration in the spinal cord after subcutaneous osmotic pump delivery; format: in vivo
Excerpt: We next used FP802 in the transgenic SOD1^G93A mouse model of ALS that expresses mutant human SOD1 with a glycine to alanine substitution at position 93 and whose general features resemble ALS in humans.[24]^,[25] SOD1^G93A mice represent a widely accepted animal model used extensively in ALS drug discovery to evaluate the efficacy of compounds now in clinical trials, which include masitinib, pridopidine, fasudil, guanabenz, and AMX0035.[26]^,[27]^,[28]^,[29]^,[30]^,[31]^,[32] We first confirmed using immunoblot analysis the reduction of EAAT2/GLT-1 expression in the spinal cord of SOD1^G93A mice (Figures 1F and 1G). Deregulation of glutamate uptake systems may lead to an increase in toxic eNMDAR signaling, which could be the cause of motor neuron death. To test this hypothesis, we applied FP802 subcutaneously to SOD1^G93A mice using an implanted ALZET osmotic mini pump to achieve a steady release of the drug. […] Following successful deactivation of the NMDAR/TRPM4 death signaling complex by FP802 in vivo, we next assessed potential therapeutic benefits of FP802 in SOD1^G93A mice. To implement an experimental design that resembles a clinical situation, we started treatment of SOD1^G93A mice with FP802 at the time of onset of motor deficits, which was around week 15.[33]^,[34]
(§1) A total of 83 heterozygous SOD1^G93A and 22 wild-type littermates were employed in this study. Eight WT and 12 SOD1^G93A mice were used to determine the EAAT2 protein levels in the spinal cord. Three SOD1^G93A mice were treated with FP802 to explore the concentration of FP802 in the spinal cord. Four SOD1^G93A mice were used to test the tolerability of mice to subcutaneously ALZET osmotic pump (type 2004) implantation with FP802 that allowed a continuous and constant supply of compound to the animals for 4 weeks. Eight wild-type mice were used to explore the disruption of the NMDAR/TRPM4 death signaling complex by FP802. In total, 52 SOD1^G93A mice were treated with FP802 or vehicle via ALZET osmotic pump from week 15 for 30 days (four cohorts). […]

[2] = biological target: T1, NMDAR/TRPM4 complex (Mus musculus, UniProt Q7TN37); experiment: Co-immunoprecipitation of the NMDAR/TRPM4 complex from lumbar spinal cord lysates of treated animals; format: in vivo; conditions: two weeks after osmotic pump implantation
T1 construct: Lumbar spinal cords were dissected from mice two weeks after ALZET osmotic pump (1002) implantation; from tissue; host or cells: lumbar spinal cord of wild-type mice treated in vivo with vehicle or FP802
T1 sequence (Q7TN37 whole entry, one chain of several): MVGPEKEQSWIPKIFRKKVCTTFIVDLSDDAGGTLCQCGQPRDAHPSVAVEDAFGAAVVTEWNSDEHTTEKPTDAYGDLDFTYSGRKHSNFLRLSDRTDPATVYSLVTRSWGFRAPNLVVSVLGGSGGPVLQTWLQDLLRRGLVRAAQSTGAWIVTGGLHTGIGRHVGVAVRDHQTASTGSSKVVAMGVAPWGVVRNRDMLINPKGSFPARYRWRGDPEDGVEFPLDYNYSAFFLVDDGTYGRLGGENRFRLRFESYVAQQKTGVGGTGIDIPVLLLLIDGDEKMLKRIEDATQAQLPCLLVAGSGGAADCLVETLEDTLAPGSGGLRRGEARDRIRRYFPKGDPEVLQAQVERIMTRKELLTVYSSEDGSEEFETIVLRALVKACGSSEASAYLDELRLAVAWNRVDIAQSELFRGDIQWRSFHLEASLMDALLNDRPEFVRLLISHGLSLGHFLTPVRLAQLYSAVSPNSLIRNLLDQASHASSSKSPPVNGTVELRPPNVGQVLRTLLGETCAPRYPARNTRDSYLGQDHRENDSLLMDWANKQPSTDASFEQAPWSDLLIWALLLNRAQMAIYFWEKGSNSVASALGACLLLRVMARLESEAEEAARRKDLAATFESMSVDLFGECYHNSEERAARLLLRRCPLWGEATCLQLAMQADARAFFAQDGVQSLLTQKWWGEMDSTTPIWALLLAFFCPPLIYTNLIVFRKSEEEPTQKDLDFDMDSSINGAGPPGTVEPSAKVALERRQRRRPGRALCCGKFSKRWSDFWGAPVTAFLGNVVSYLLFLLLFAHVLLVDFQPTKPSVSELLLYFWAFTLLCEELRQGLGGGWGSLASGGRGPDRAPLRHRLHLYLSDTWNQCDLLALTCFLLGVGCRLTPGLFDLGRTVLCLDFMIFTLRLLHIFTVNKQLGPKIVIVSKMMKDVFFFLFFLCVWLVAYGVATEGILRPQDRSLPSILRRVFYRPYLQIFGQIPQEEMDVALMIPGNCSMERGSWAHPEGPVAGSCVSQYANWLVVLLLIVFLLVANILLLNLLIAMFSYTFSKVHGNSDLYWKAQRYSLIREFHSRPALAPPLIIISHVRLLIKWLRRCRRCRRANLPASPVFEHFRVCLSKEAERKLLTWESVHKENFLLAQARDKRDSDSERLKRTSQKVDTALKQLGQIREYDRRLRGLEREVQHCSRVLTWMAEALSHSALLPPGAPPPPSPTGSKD
Experimental: as §1, with “cohorts). It was not possible to extend the treatment beyond the 30 days application period because the poor health state of many animals was incompatible with the anesthesia required for surgical implantation of a second osmotic pump. The number of animals used for experiments was specified in the figure legends.” for “cohorts).”
All procedures for immunoprecipitation were carried out at 4°C as described before.[20] […] Protein concentrations of the supernatants were measured using the Pierce BCA Protein Assay Kit. […]

[3] = Hematology of treated SOD1G93A mice; format: in vivo, mouse; conditions: 40 mg/kg/day s.c. pump
Experimental: All hematology and most serum clinical chemistry analyses were carried out by IDEXX Laboratories, Germany. The neurofilament light chain levels in serum were determined by PBL Assay Science (USA) using the Simoa NF-light Advantage Kit (Quanterix Cat #103186).
Vehicle FP802 n Significance 95% Interval
Anisocytosis (%) 0 0 4 n.a. -
Band neutrophils 0 0 4 n.a. -
Basophils (%) 0 0 4 n.a. -
Atypical cells 0 0 4 n.a. -
Table S2. Hematology of SOD1G93A mice treated with vehicle or FP802.
FP802 delivered with a subcutaneously implanted ALZET osmotic pump at 40 mg/kg/day for 4 weeks starting at
References were from Charles
River Laboratories datasheets for C57BL6 mice. Related to Figure 2.

[4] = test system: primary mouse cortical neurons; conditions: FP802 10 μM, 30 min pre-incubation, NMDA 20 μM, 2 h
Experimental: Primary mouse cortical neurons were pre-incubated with FP802 (10 μM) or vehicle for 30 min before a 2-h treatment with either bicuculline (Bic, 50 μM) to induce action potential (AP) bursting or NMDA (20 μM) to induce excitotoxic insults. The mRNA levels of Arc, Atf3, Bdnf, c-Fos, Inhibin beta A, and Npas4 were assessed by RT-qPCR. Data represent means ± SD, n = 3; ns: no significant difference, ∗p < 0.05, ∗∗p < 0.01, ∗∗∗p < 0.001, two-way ANOVA followed by Dunnett's multiple comparisons.
Primary mouse cortical neurons were prepared as previously described.[43]^,[44] Briefly, brain cortices from neonatal mice (C57/Bl6, RRID:MGI:7264769) were removed and cut into small pieces in the dissociation medium (in mM: 81.8 Na2SO4, 30 K2SO4, 15.85 MgCl2, 0.25 CaCl2, 1.0 HEPES, 1050.0 kynurenic acid; 0.2% phenol red and 0.36% glucose). The tissues were then digested with papain latex (10 units/mL) in the dissociation medium supplemented with 0.45 mg/mL L-cysteine for two times of 15 min in a 37°C water bath with stirring at 15 rpm. Then the tissue was washed twice with the dissociation medium and incubated with trypsin inhibitor (0.01 g/mL) in dissociation medium for 3 × 5 min. The samples were then triturated into single cell solution and plated at a density of 0.25 × 10^6 cell per well in 24-well plates, which have been pretreated with poly-D-lysine (26.7 mg/μL) and laminin (6.7 mg/μL). […]

Which “concentration in the spinal cord” value ([1]; SOD1G93A mice, 40 mg/kg/day s.c. ALZET osmotic pump, 2 weeks, n = 3) does the source give for `CCN(CCN)Cc1cccc(Cl)c1` [FP802] here?
Its value is 7.54 ± 4.79 nmol/g.

What about the concentration at 2 weeks ([1]; SOD1G93A transgenic, mouse, spinal cord, sc, SOD1G93A mice, 40 mg/kg/day s.c., 2 weeks, read-out: concentration in the spinal cord, corresponding molar concentration) of the same compound?
Its concentration at 2 weeks is 3 to 12 µM.

And the “crossing of the mouse blood-spinal cord barrier” value ([1]; s.c. ALZET osmotic mini pump)?
Its value is “readily crossed”.

What about the “interaction of TRPM4 with the NMDAR subunit GluN2B (co-immunoprecipitation)” value [2] of the same compound?
The value was “disrupted”.

What about the Anisocytosis ([3]; 4 weeks) of the same compound?
The Anisocytosis was 0%.

What about the Atypical cells ([3]; 4 weeks) of the same compound?
Its Atypical cells is 0.

What about the Band neutrophils ([3]; 4 weeks) of the same compound?
The Band neutrophils was 0.

And the Basophils ([3]; 4 weeks)?
The Basophils was 0%.

What about the Eosinophils ([3]; 4 weeks) of the same compound?
Its Eosinophils is 0.25 ± 0.50%.

And the Hematocrit ([3]; 4 weeks)?
Its Hematocrit is 50.25 ± 1.71%.

What about the Hemoglobin ([3]; 4 weeks) of the same compound?
Its Hemoglobin is 14.13 ± 0.68 g/dL.

And the Leukocytes ([3]; 4 weeks)?
The Leukocytes was 3.53 ± 1.32 G/L.

And the Lymphocyte ([3]; 4 weeks)?
Its Lymphocyte is 71.50 ± 5.57%.

What about the MCH ([3]; 4 weeks) of the same compound?
Its MCH is 14.00 ± 0.12 pg.

And the MCHC ([3]; 4 weeks)?
Its MCHC is 28.50 ± 0.58 g/dL.

And the MCV ([3]; 4 weeks)?
The MCV was 49.75 ± 0.50 fL.

And the Monocyte ([3]; 4 weeks)?
Its Monocyte is 4.25 ± 1.26%.

And the Reticulocyte ([3]; 4 weeks)?
Its Reticulocyte is 5.10 ± 0.81%.

What about the Segmented neutrophils ([3]; 4 weeks) of the same compound?
Its Segmented neutrophils is 22.50 ± 6.40%.

What about the Thrombocytes ([3]; 4 weeks) of the same compound?
Its Thrombocytes is 1506.00 ± 174.68 G/L.

And the “adverse effects on the hematology” value ([3]; 4 weeks)?
Its value is “no adverse effects”.

What about the Erythrocyte ([3]; 4 weeks from 15 weeks of age) of the same compound?
The Erythrocyte was 10.08 ± 0.38 T/L.

What about the “transcriptional shut-off induced by eNMDARs” value [4] of the same compound?
The value was “eliminated”.

And the “NMDA bath application-induced expression of IEGs Atf3, Arc, Bdnf, cFos, Inhibin beta A, Npas4” value ([4]; RT-qPCR, levels comparable to bicuculline-induced AP bursting)?
Its value is “boosted”.
